# Experimental data: ChEMBL document CHEMBL1127653, “Synthesis and anticholinergic activity of the four stereoisomers of 4-(dimethylamino)-2-phenyl-2-(2-pyridyl)pentanamide” (J Med Chem, 1994)
# Organism: Cavia porcellus
# Experiment: Inhibitory effect on acetylcholine-Induced contraction of Guinea pig iIeum
# Format: functional
# Conditions: not given
row,SMILES,IC50
1,CC(CC(C(N)=O)(c1ccccc1)c1ccccn1)N(C)C (racemic; form 1) [VAMICAMIDE],1500 nM
2,"C[C@H](C[C@@](C(N)=O)(c1ccccc1)c1ccccn1)N(C)C (stereo in doubt; 11 (2S,4S))",31000 nM
3,"C[C@H](C[C@@](C(N)=O)(c1ccccc1)c1ccccn1)N(C)C (stereo in doubt; 12 (2R,4S))",170000 nM
4,"C[C@H](C[C@@](C(N)=O)(c1ccccc1)c1ccccn1)N(C)C (stereo in doubt; 10 (2R,4R))",400 nM
5,"C[C@H](C[C@@](C(N)=O)(c1ccccc1)c1ccccn1)N(C)C (stereo in doubt; 13 (2S,4R))",130 nM
6,CC(CC(C(N)=O)(c1ccccc1)c1ccccn1)N(C)C (racemic; form 2) [VAMICAMIDE],570 nM

# Same assay, conditions: Cavia porcellus
row,SMILES,IC50
1,CN(C)CCC(C(N)=O)(c1ccccc1)c1ccccn1 (configuration not stated),8100 nM
